Data from ChEMBL document CHEMBL4024734, “Design, synthesis, biological evaluation and molecular docking studies of novel 3-aryl-4-anilino-2H-chromen-2-one derivatives targeting ERα as anti-breast cancer agents” (Bioorg Med Chem Lett, 2017).

Columns and labels:
MCF7 [1] = test: Antiproliferative activity against ER positive human MCF7 cells after 48 hrs by MTT assay; assay type: functional, cell-based; settings: MCF7, 48 h
Ishikawa = test: Antiproliferative activity against human Ishikawa cells after 48 hrs by MTT assay; assay type: functional, cell-based
[2] = biological target: T1, Estrogen receptor (Homo sapiens) (UniProt P03372); test: Displacement of fluoromone from full length recombinant human estrogen receptor alpha expressed in Spodoptera frugiperda at 100 uM measured after 2 hrs by fluorescence polarization assay relative to control
T1 sequence (whole entry): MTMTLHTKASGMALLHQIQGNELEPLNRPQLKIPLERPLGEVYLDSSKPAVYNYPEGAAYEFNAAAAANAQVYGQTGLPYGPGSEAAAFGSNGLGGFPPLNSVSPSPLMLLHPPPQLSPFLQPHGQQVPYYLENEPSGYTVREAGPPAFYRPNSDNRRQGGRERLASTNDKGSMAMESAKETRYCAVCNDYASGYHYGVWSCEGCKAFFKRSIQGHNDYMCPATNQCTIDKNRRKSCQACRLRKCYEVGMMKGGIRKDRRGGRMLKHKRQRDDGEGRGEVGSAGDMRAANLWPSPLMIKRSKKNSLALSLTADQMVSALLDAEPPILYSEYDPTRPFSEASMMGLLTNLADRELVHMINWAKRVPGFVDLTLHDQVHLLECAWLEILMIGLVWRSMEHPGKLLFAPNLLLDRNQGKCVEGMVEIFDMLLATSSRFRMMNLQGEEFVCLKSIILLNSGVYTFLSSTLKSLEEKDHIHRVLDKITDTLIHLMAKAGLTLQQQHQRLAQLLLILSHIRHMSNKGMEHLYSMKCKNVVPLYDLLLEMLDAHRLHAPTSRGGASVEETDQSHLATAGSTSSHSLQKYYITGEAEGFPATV

MCF7 [3] = test: Potency index, ratio of tamoxifen IC50 to compound IC50 against human MCF7 cells; assay type: functional

| Structure (SMILES) | IC50 (MCF7 [1]) [µM] | RBA [2] [%] | IC50 (Ishikawa) [µM] | Ratio IC50 (MCF7 [3]) |
| --- | --- | --- | --- | --- |
| COc1ccc(-c2c(Nc3ccc(OCCN4CCCC4)cc3)c3ccccc3oc2=O)cc1 | 6.21 | – | 9.3 | – |
| COc1ccc(-c2c(Nc3ccc(OCCN4CCOCC4)cc3)c3ccc(OC)cc3oc2=O)cc1 | > 100 | 24 | > 100 | – |
| CCN(CC)CCOc1ccc(Nc2c(-c3ccc(OC)cc3)c(=O)oc3cc(OC)ccc23)cc1 | 10.2 | – | 8.84 | – |
| CCN(CC)CCOc1ccc(Nc2c(-c3ccc(OC)cc3)c(=O)oc3cc(O)ccc23)cc1 | 8.81 | – | 14.8 | – |
| COc1ccc(-c2c(Nc3ccc(OCCN4CCOCC4)cc3)c3ccccc3oc2=O)cc1 | 47.5 | 17 | 49.5 | – |
| CCN(CC)CCOc1ccc(Nc2c(-c3ccc(OC)cc3)c(=O)oc3ccccc23)cc1 | 7.57 | – | 10.8 | – |
| COc1ccc(-c2c(Nc3ccc(OCCN4CCOCC4)cc3)c3ccc(O)cc3oc2=O)cc1 | > 100 | – | > 100 | – |
| COc1ccc(-c2c(Nc3ccc(OCCN(C)C)cc3)c3ccc(O)cc3oc2=O)cc1 | 9.53 | – | 13.2 | – |
| COc1ccc(-c2c(Nc3ccc(OCCN4CCCCC4)cc3)c3ccc(O)cc3oc2=O)cc1 | 7.31 | – | 8.43 | – |
| COc1ccc(-c2c(Nc3ccc(OCCN4CCCC4)cc3)c3ccc(O)cc3oc2=O)cc1 | 8.42 | – | 11.8 | – |
| COc1ccc(-c2c(Nc3ccc(OCCN4CCN(C)CC4)cc3)c3ccccc3oc2=O)cc1 | 15.6 | – | 23.4 | – |
| COc1ccc(-c2c(Nc3ccc(OCCN4CCN(C)CC4)cc3)c3ccc(O)cc3oc2=O)cc1 | 17.6 | – | 19.4 | – |
| COc1ccc(-c2c(Nc3ccc(OCCN(C)C)cc3)c3ccc(OC)cc3oc2=O)cc1 | 8.32 | – | 12.2 | – |

Further compounds by falling IC50 (MCF7 [1]), results first:

| IC50 (MCF7 [1]) [µM] | RBA [2] [%] | Structure (SMILES) | IC50 (Ishikawa) [µM] | Ratio IC50 (MCF7 [3]) |
| --- | --- | --- | --- | --- |
| 12.4 | – | COc1ccc(-c2c(Nc3ccc(OCCN4CCN(C)CC4)cc3)c3ccc(OC)cc3oc2=O)cc1 | 15.2 | – |
| 11.3 | – | CC/C(=C(\c1ccccc1)c1ccc(OCCN(C)C)cc1)c1ccccc1 [TAMOXIFEN] | – | – |
| 8.76 | – | COc1ccc(-c2c(Nc3ccc(OCCN(C)C)cc3)c3ccccc3oc2=O)cc1 | 11.8 | – |
| 6.51 | – | COc1ccc(-c2c(Nc3ccc(OCCN4CCCC4)cc3)c3ccc(OC)cc3oc2=O)cc1 | 9.39 | – |
| 5.86 | – | COc1ccc(-c2c(Nc3ccc(OCCN4CCCCC4)cc3)c3ccccc3oc2=O)cc1 | 8.74 | – |
| 4.52 | – | COc1ccc(-c2c(Nc3ccc(OCCN4CCCCC4)cc3)c3ccc(OC)cc3oc2=O)cc1 | 11.6 | 3 |
